Results on 52 sequences are retold here after the supplement of paper PMC11208160.

A short description of the data set: recombinant UMI read abundance after kanamycin selection (control-corrected) (log10(CPM+1)); higher = more efficient recombination; extreme values may be limits of the assay; sequences stand for … in AGTGCAGAGAAAATCGGCCAGTTTTCTCTGCCTGCAGTCCGCATGCCGTGGGACCCCTTGGGTTCTAACCTGTTGCCTAGATTTATGCAGCGGACTGCCTTTCTCCCAAAGTGATAAACCGG…AGGTTGGTTTCACT; site = the 11-nt donor. The essentials:
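Counts of recombinant UMIs were reported as log10(CPM+1). Before that, they were converted to CPM, averaged over replicates and scaled using control-derived factors. They came from PCR across the donor–target junction after Escherichia coli carrying the pair library and target plasmid was plated on IPTG (0.07 mM) plus kanamycin, or unselected, in two replicates each.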
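Further: IS621 bridge recombinase in Escherichia coli cells against a fixed T5 target plasmid.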

“CAATTTCCATGGACCGGTTTTCCCGGTAATCCGTATTTGCT (site CAATTTCCTAG)”: the “recombinant UMI read abundance (log10)” value was 1.08.

Take “CACAAATCATGGACCGGTTTTCCCGGTAATCCGTATTTGAC (site CACAAATCTGT)”: the “recombinant UMI read abundance (log10)” value was 1.62.

As to “CACAGCCCATGGACCGGTTTTCCCGGTAATCCGTATTTGTT (site CACAGCCCTAA)”, the “recombinant UMI read abundance (log10)” value worked out at 0.97.

For “CACAGCCCATGGACCGGTTTTCCCGGTAATCCGTATTTGTT (site CACCGCCCTAA)”, the “recombinant UMI read abundance (log10)” value was 0.00684.

As to “CACAGCCCATGGACCGGTTTTCCCGGTAATCCGTATTTGTT (site CACGGCCCTAA)”, the “recombinant UMI read abundance (log10)” value turned out to be 0.0224.

Consider “CACAGCCCATGGACCGGTTTTCCCGGTAATCCGTATTTGTT (site CACTGCCCTAA)”, for which the “recombinant UMI read abundance (log10)” value came to 0.018.

As for “CACAGTGCATGGACCGGTTTTCCCGGTAATCCGTATTTGAT (site CACAGTGCTAT)”, the “recombinant UMI read abundance (log10)” value came out at 2.52.

Take “CACATGGCATGGACCGGTTTTCCCGGTAATCCGTATTTGCC (site CACATGGCTGG)”: the “recombinant UMI read abundance (log10)” value turned out to be 0.

As to “CACCCTACATGGACCGGTTTTCCCGGTAATCCGTATTTGAG (site CACCCTACTCT)”, the “recombinant UMI read abundance (log10)” value was 1.27.

As to “CACCCTACATGGACCGGTTTTCCCGGTAATCCGTATTTGAG (site CCCCCTACTCT)”, the “recombinant UMI read abundance (log10)” value was 0.0201.

Consider “CACCCTACATGGACCGGTTTTCCCGGTAATCCGTATTTGAG (site CGCCCTACTCT)”, for which the “recombinant UMI read abundance (log10)” value was determined as 0.0118.

Consider “CACCCTACATGGACCGGTTTTCCCGGTAATCCGTATTTGAG (site CTCCCTACTCT)”, for which the “recombinant UMI read abundance (log10)” value is 0.0244.

Consider “CACCCTACATGGACCGGTTTTCCCGGTAATCCGTATTTGGC (site CACCCTACTGC)”, for which the “recombinant UMI read abundance (log10)” value came out at 2.59.

For “CACCTTACATGGACCGGTTTTCCCGGTAATCCGTATTTGTC (site CACCTTACTGA)”, the “recombinant UMI read abundance (log10)” value worked out at 0.

Consider “CACGACCCATGGACCGGTTTTCCCGGTAATCCGTATTTGTT (site CACGACCCTAA)”, for which the “recombinant UMI read abundance (log10)” value is 0.631.

Consider “CACGACCCATGGACCGGTTTTCCCGGTAATCCGTATTTGTT (site CACGCCCCTAA)”, for which the “recombinant UMI read abundance (log10)” value amounted to 0.0282.

With “CACGACCCATGGACCGGTTTTCCCGGTAATCCGTATTTGTT (site CACGGCCCTAA)”, the “recombinant UMI read abundance (log10)” value amounted to 0.0138.

For the sequence “CACGACCCATGGACCGGTTTTCCCGGTAATCCGTATTTGTT (site CACGTCCCTAA)”, the “recombinant UMI read abundance (log10)” value worked out at 0.00755.

In the case of “CACGCATCATGGACCGGTTTTCCCGGTAATCCGTATTTGAT (site CACGCATCTAT)”, the “recombinant UMI read abundance (log10)” value is 2.51.

Turning to “CACGCGACATGGACCGGTTTTCCCGGTAATCCGTATTTGGC (site CACGCGACTGC)”, the “recombinant UMI read abundance (log10)” value came out at 2.94.

On to “CACGCTCCATGGACCGGTTTTCCCGGTAATCCGTATTTGTC (site CACGCTCCTGA)”, for which the “recombinant UMI read abundance (log10)” value was found to be 2.39.

On to “CACGGACCATGGACCGGTTTTCCCGGTAATCCGTATTTGTT (site CACGGACCTAA)”, for which the “recombinant UMI read abundance (log10)” value was 0.00996.

For “CACGGACCATGGACCGGTTTTCCCGGTAATCCGTATTTGTT (site CACGGCCCTAA)”, the “recombinant UMI read abundance (log10)” value came to 0.403.

For the sequence “CACGGACCATGGACCGGTTTTCCCGGTAATCCGTATTTGTT (site CACGGGCCTAA)”, the “recombinant UMI read abundance (log10)” value was found to be 0.387.

“CACGGACCATGGACCGGTTTTCCCGGTAATCCGTATTTGTT (site CACGGTCCTAA)”: the “recombinant UMI read abundance (log10)” value stood at 0.

With “CACGGCCCATGGACCGGTTTTCCCGGTAATCCGTATTTGCT (site CACGGCCCTAA)”, the “recombinant UMI read abundance (log10)” value worked out at 0.0432.

As for “CACGGCCCATGGACCGGTTTTCCCGGTAATCCGTATTTGCT (site CACGGCCCTAC)”, the “recombinant UMI read abundance (log10)” value turned out to be 0.0286.

As for “CACGGCCCATGGACCGGTTTTCCCGGTAATCCGTATTTGCT (site CACGGCCCTAG)”, the “recombinant UMI read abundance (log10)” value came out at 1.12.

As to “CACGGCCCATGGACCGGTTTTCCCGGTAATCCGTATTTGCT (site CACGGCCCTAT)”, the “recombinant UMI read abundance (log10)” value came to 0.636.

For “CACGGCCCATGGACCGGTTTTCCCGGTAATCCGTATTTGTG (site CACGGCCCTAA)”, the “recombinant UMI read abundance (log10)” value stood at 0.0211.

“CACGGCCCATGGACCGGTTTTCCCGGTAATCCGTATTTGTG (site CACGGCCCTCA)”: the “recombinant UMI read abundance (log10)” value was 0.0766.

“CACGGCCCATGGACCGGTTTTCCCGGTAATCCGTATTTGTG (site CACGGCCCTGA)”: the “recombinant UMI read abundance (log10)” value worked out at 0.

In the case of “CACGGCCCATGGACCGGTTTTCCCGGTAATCCGTATTTGTG (site CACGGCCCTTA)”, the “recombinant UMI read abundance (log10)” value was determined as 0.00311.

Consider “CACGGTCCATGGACCGGTTTTCCCGGTAATCCGTATTTGCA (site CACGGTCCTTG)”, for which the “recombinant UMI read abundance (log10)” value is 1.74.

Consider “CACGGTCCATGGACCGGTTTTCCCGGTAATCCGTATTTGCA (site CCCGGTCCTTG)”, for which the “recombinant UMI read abundance (log10)” value was found to be 0.

Regarding “CACGGTCCATGGACCGGTTTTCCCGGTAATCCGTATTTGCA (site CGCGGTCCTTG)”, the “recombinant UMI read abundance (log10)” value turned out to be 0.

For “CACGGTCCATGGACCGGTTTTCCCGGTAATCCGTATTTGCA (site CTCGGTCCTTG)”, the “recombinant UMI read abundance (log10)” value was 0.

For the sequence “CACGGTCCATGGACCGGTTTTCCCGGTAATCCGTATTTGTT (site CACGGACCTAA)”, the “recombinant UMI read abundance (log10)” value turned out to be 0.00385.

Turning to “CACGGTCCATGGACCGGTTTTCCCGGTAATCCGTATTTGTT (site CACGGCCCTAA)”, the “recombinant UMI read abundance (log10)” value stood at 0.18.

Take “CACGGTCCATGGACCGGTTTTCCCGGTAATCCGTATTTGTT (site CACGGGCCTAA)”: the “recombinant UMI read abundance (log10)” value came to 0.00486.

Consider “CACGGTCCATGGACCGGTTTTCCCGGTAATCCGTATTTGTT (site CACGGTCCTAA)”, for which the “recombinant UMI read abundance (log10)” value was 1.4.

As for “CACGTACCATGGACCGGTTTTCCCGGTAATCCGTATTTGCT (site CACGTACCTAG)”, the “recombinant UMI read abundance (log10)” value came to 0.0043.

For the sequence “CACTACTCATGGACCGGTTTTCCCGGTAATCCGTATTTGCC (site CACTACTCTGG)”, the “recombinant UMI read abundance (log10)” value worked out at 2.55.

“CACTACTCATGGACCGGTTTTCCCGGTAATCCGTATTTGCC (site CACTCCTCTGG)”: the “recombinant UMI read abundance (log10)” value was determined as 0.801.

For “CACTACTCATGGACCGGTTTTCCCGGTAATCCGTATTTGCC (site CACTGCTCTGG)”, the “recombinant UMI read abundance (log10)” value amounted to 0.737.

For “CACTACTCATGGACCGGTTTTCCCGGTAATCCGTATTTGCC (site CACTTCTCTGG)”, the “recombinant UMI read abundance (log10)” value came to 0.

As for “CACTAGGCATGGACCGGTTTTCCCGGTAATCCGTATTTGGA (site CACTAGGCTTC)”, the “recombinant UMI read abundance (log10)” value came out at 0.727.

In the case of “CACTAGGCATGGACCGGTTTTCCCGGTAATCCGTATTTGGA (site CACTCGGCTTC)”, the “recombinant UMI read abundance (log10)” value was determined as 0.0143.

Consider “CACTAGGCATGGACCGGTTTTCCCGGTAATCCGTATTTGGA (site CACTGGGCTTC)”, for which the “recombinant UMI read abundance (log10)” value turned out to be 0.0136.

Turning to “CACTAGGCATGGACCGGTTTTCCCGGTAATCCGTATTTGGA (site CACTTGGCTTC)”, the “recombinant UMI read abundance (log10)” value was determined as 0.0198.

Consider “CACTATGCATGGACCGGTTTTCCCGGTAATCCGTATTTGCG (site CACTATGCTCG)”, for which the “recombinant UMI read abundance (log10)” value turned out to be 1.67.

For the sequence “CACTCCCCATGGACCGGTTTTCCCGGTAATCCGTATTTGAC (site CACTCCCCTGT)”, the “recombinant UMI read abundance (log10)” value came to 1.54.
